Results taken from patent publication US20240325374A1, “INHIBITING INTRACELLULAR PATHOGENS” (THE RESEARCH INSTITUTE AT NATIONWIDE CHILDREN'S HOSPITAL, priority 2021, published 2024).

Assays:
[1] = test system: S. typhimurium wild-type strain ATCC 14028; assay: Bacterial growth in macrophages (intracellular CFU), wild-type S. typhimurium in J774.1; assay type: cell-based
Description: (§1) Hoang et al., International Journal of Pharmaceutics, 2014. 477(1-2): p. 334-343.
The J774.1 cells were infected with S. typhimurium and treated with KH-2.

[2] = test system: S. typhi strain TY2; assay: Bacterial growth in macrophages (intracellular CFU), S. typhi in J774.1; assay type: cell-based; conditions: infected J774.1, 24 hrs post treatment
Description: as §1

[3] = test system: PLB-985 neutrophil-like cells; assay: Neutrophil reactive oxygen species production assay; assay type: cell-based; conditions: various concentrations, luminol chemiluminescence for 1 hour
Protocol: PLB-985 cells that were cultured in RPMI supplemented with 10% FBS and penicillin-streptomycin (100 μg/ml each) were differentiated to a neutrophil-like phenotype by 6-day incubation in RPMI supplemented with 0.5% N,N-dimethylformamide, 0.5% FBS, 1% Nutridoma-SP (Roche; Mannheim, Germany), […] L-glutamine, and 1× penicillin/streptomycin. Media was replaced on day 3. On day 6 after differentiation, the medium was removed and replaced with 100 μl fresh medium containing different concentrations of KH-1-2. Cells in the positive control group were stimulated with 400 ng PMA/ml. Cells in the negative control group were treated with an equivalent concentration of DMSO. All groups were supplied with luminol (final concentration of 500 μM) and reactive oxygen species (ROS) production at 37° C. was monitored in triplicate by luminol-dependent chemiluminescence measured every 2 minutes for 1 hour using a Spectra Max M3 plate reader.

[4] = test system: macrophages; assay: Toxicity of compound alone to macrophages by LDH release; assay type: cell-based; conditions: effective concentrations
[5] = test system: uninfected mice; assay: Toxicity study of KH-1-2 in vivo
Protocol: To examine the toxicity of KH-1-2, mice were intraperitoneally (i.p.) given KH-1-2 that was dissolved in 200 μl of polyethylene glycol 400 (PEG 400)-0.9% saline-ethanol (50:35:15) at 1 mg and 10 mg/kg of body weight per day for 12 consecutive days. Mice in the control groups received 200 μl of PEG-saline-ethanol. The experimental animals were observed daily throughout the study for clinical signs, and mortality. At the end of the experiment, mice were sacrificed, and liver, spleen, and kidney were collected, fixed in 4% paraformaldehyde for 72 hrs, processed and stained with hematoxylin and eosin (H&E) for histopathologic evaluation, which was performed at the Morphology Core at Nationwide Children's Hospital.
To examine the in vivo toxicity of KH-1-2, uninfected mice were given KH-1-2 intraperitoneally in 200 μl of polyethylene glycol 400 (PEG 400)-0.9% saline-ethanol (50:35:15) at 1 and 10 mg/kg body weight daily for 12 consecutive days. Mice in the control group were treated with an equal amount of diluent. Mice were monitored for clinical signs and at day 13, the liver, spleen, and kidney were collected for histopathologic evaluation.

[6] = test system: ciprofloxacin-resistant S. typhimurium; assay: Mouse model of typhoid fever, ciprofloxacin-resistant S. typhimurium, survival; assay type: in vivo, BALB/c mice
Protocol: S. typhi is a human-restricted pathogen and is unable to colonize in mice. However, S. typhimurium causes a typhoid fever-like disease in mice and is widely used as a model to study human typhoid fever. Johnson, R., E. Mylona, and G. Frankel, Cell Microbiol, 2018. 20(9): p. e12939. […] Mice were infected with the ciprofloxacin-resistant S. typhimurium at a lethal dose of 10^6 CFU per mouse in 200 μl PBS via the i.p. route.
After determining the maximum tolerable dose of KH-1-2 by the i.p. route (10 mg/kg of body weight per day), the protective efficacy of KH-1-2 as a treatment for typhoid fever was evaluated. Mice (4 or 5 mice per group) were infected at day 0 with a lethal dose of the ciprofloxacin-resistant S. typhimurium isolate as described above. One day post-infection, the infected mice were given KH-1-2 prepared in 200 μl PBS at 0.05, 0.1, and 0.25 mg/kg body weight per day via i.p. delivery for 14 consecutive days.
We next sought to examine the effectiveness of delivering KH-1-2 for controlling a ciprofloxacin-resistant S. typhimurium isolate in a mouse model of typhoid fever. Mice were challenged with a lethal dose of bacteria via oral gavage and the infected mice were i.p. treated with KH-1-2 prepared in 200 μl PBS at 0.05, 0.1, and 0.25 mg/kg body weight/day for 14 consecutive days. […] As expected, all mice in the control group were moribund before or at day 12 post-infection.

[7] = test system: S. typhimurium-infected J774.1 macrophages; assay: LDH release from Salmonella-infected macrophages; assay type: cell-based, murine; conditions: 5 μM, 10 μM and 20 μM, after 24 h
Protocol: The strategy to identify host-targeted compounds is outlined in FIG. 1. Briefly, J774.1 macrophages in suspension at 3×10^6 cells/ml were infected with S. typhimurium at a multiplicity of infection (MOI) of 10 for 1 hour with orbital shaking at 80 rpm. […] The infected macrophages were resuspended in a medium containing 10 μg/ml gentamicin, seeded onto 96-well plates at 10^5 cells/well in 150 μl medium, and allowed to adhere to the well for three hours. The infected cells in each well were then treated with 25 μM of each compound from the ATP mimetic library using a multichannel pipette. […] After 24 hours of incubation, an LDH assay (Roche Applied Science, Indianapolis, IN) was performed using 50 μl of supernatant from each well. Absorbance at 570 nm was determined via a plate reader Spectra Max M3. […]
We developed a cell-based assay to screen 3000 compounds of an ATP-mimetic library purchased from ChemBridge using J774.1 macrophages for those that protect S. typhimurium-infected macrophages from death. The viability of Salmonella-infected J774.1 cells was determined by measuring LDH release from the infected cells. […] To examine whether the reduction in LDH release was due to the limited growth of the bacteria intracellularly, the infected cells were treated with various concentrations of KH-1, and the intracellular bacterial load was determined at 24 hours post-treatment. […]

[8] = test system: S. typhimurium; assay: Broth antibacterial assay (OD600 in LB); assay type: cell-based; conditions: KH-2 10 μM, 20 μM and 50 μM
Protocol: An equivalent amount of DMSO was added in a control group. The bacterial growth was monitored at an optical density at 600 nm (OD600) at the indicated time points using a plate reader Spectra Max M3.
Overnight cultures of S. typhimurium were sub-cultured (1:100) in fresh Luria-Bertani (LB) broth in presence of different concentration of KH-2 and incubated at 37° C. The vehicle control (DMSO) groups were included. The experiments were performed in 96-well plates. The bacterial growth was monitored at different time-points by measuring optical density at 600 nm (OD600).

[9] = test system: S. typhimurium; assay: KH-2 protection of mice from lethal S. typhimurium infection, survival; assay type: in vivo, BALB/c mice; conditions: 0.5, 1.0, 2.5 and 5 mg/kg/day i.p., day 1 to day 12, oral infection 10^6 bacteria/mouse, survival to day 14
Protocol: Pathogen-free 6- to 8-week-old female BALB/c mice were purchased from Harlan Sprague. Mice (3 mice/group, except the vehicle control group) were provided food and water ad libitum in sterile microisolator cages and allowed to acclimatize for 3 days before challenge. Mice were orally infected with 10^6 bacteria/mouse (day 0) in 200 μl PBS. The infected mice were intraperitoneally given KH-2 at different doses (5 mg, 2.5 mg, 1 mg, and 0.5 mg/kg body weight/day) in 200 μl PBS from day 1 to day 12 post infection. Vehicle (DMSO) was added as the control group. The mice were monitored for survival until day 14 post infection. […] A mouse model of typhoid fever was used to assess the efficacy of KH-2 in increasing the survival rate of infected mice.

Row | SMILES | EC50 ([1]; Salmonella enterica, infected J774.1 cells, CFU at 24 hrs post treatment, % of DMSO control, read-out: half maximal effective concentration (EC50) on S. typhimurium) [nM] | reduction in bacterial load in infected macrophages ([1]; in vitro treatment of Salmonella infection) | intracellular bacterial growth in combination with sub-optimal ciprofloxacin ([1]; infected macrophages, with sub-optimal dose of ciprofloxacin, 24 hours post-treatment) | intracellular growth of S. typhi, compared with KH-1 [2] | reactive oxygen species (ROS) production [3] | toxicity to macrophages as measured by LDH release [4] | liver histopathology ([5]; 1 mg/kg i.p. daily) | liver histopathology ([5]; 10 mg/kg i.p. daily) | maximum tolerable dose ([5]; i.p. route, mice) | clinical signs ([5]; uninfected mice, i.p., 1 and 10 mg/kg body weight daily, 12 consecutive days) | immune cell migration and apoptosis in liver, spleen, kidney ([5]; uninfected mice, i.p., 1 and 10 mg/kg daily, 12 days) | histologic evaluation of the liver, spleen, and kidney ([5]; uninfected mice, i.p., 1 and 10 mg/kg daily, 12 days, organs at day 13) | survival ([6]; 0.1 mg/kg body weight/day i.p., 14 consecutive days, lethal dose 10^6 CFU/mouse) [%] | survival versus control untreated group ([6]; 0.05, 0.1 and 0.25 mg/kg body weight/day i.p., 14 days, p<0.05) | lactate dehydrogenase (LDH) release from Salmonella infected J774.1 macrophages [7] | growth of Salmonella in J774.1 macrophages (intracellular CFU) ([1]; KH-2 5 μM, 10 μM and 20 μM, after 24 hours) | growth of Salmonella in Luria-Bertani (LB) bacterial growth media (OD600) [8] | survival of mice after lethal Salmonella infection [9]
1 | O=C1c2oc3ccccc3c(=O)c2C(c2cccc(Oc3ccccc3)c2)N1Cc1ccc(F)cc1 (stereo not drawn) [KH-1-2, 2-(4-fluorobenzyl)-1-(3-phenoxyphenyl)-1,2-dihydrochromeno[2,3-c] pyrrole-3,9-dione] | 2600 | 8- to 10 fold | further reduces Salmonella growth inside macrophages | more effective at reducing the intracellular growth of S. typhi | does not involve in induction of reactive oxygen species (ROS) production | not toxic to macrophages at the effective concentrations | no adverse effects | minimal alterations including increased infiltration of lymphocytic cells and neutrophils | 10 mg/kg of body weight per day | no adverse clinical signs | No increase in immune cell migration or significant apoptosis | no dose-related macroscopic or microscopic findings | 60 | significantly greater survival | – | – | – | –
2 | COC(=O)c1cccc(COC(=O)c2cc(O)nc3ccccc23)c1 [KH-2, 3-(methoxycarbonyl)benzyl 2-hydroxy-4-quinolinecarboxylate] | – | – | – | – | – | – | – | – | – | – | – | – | – | – | reduced lactate dehydrogenase (LDH) release from Salmonella infected J774.1 macrophages | inhibits the growth of Salmonella in J774.1 macrophages | does not inhibit the growth of Salmonella in Luria-Bertani (LB) bacterial growth media | protects mice from lethal Salmonella infection
